We go through four compounds from paper PMC7026418, “The kinase polypharmacology landscape of clinical PARP inhibitors” (Scientific Reports, 2020).

Like-named read-outs stand apart in the source and are kept apart here.

Among the targets are CAMKK2 (Homo sapiens, UniProt Q96RR4); FGFR1 (Homo sapiens, UniProt P11362); RET(M918T) (Homo sapiens, UniProt P07949, M918T).
What all share (test): biochemical
Holding throughout (set-up): DiscoveRx KINOMEscan active site-directed competition binding; percent of control kinase bound to immobilised ligand

For a further test, the target named is T1, EPHB4 (Homo sapiens, UniProt P54760).
T1 sequence (P54760 1-987): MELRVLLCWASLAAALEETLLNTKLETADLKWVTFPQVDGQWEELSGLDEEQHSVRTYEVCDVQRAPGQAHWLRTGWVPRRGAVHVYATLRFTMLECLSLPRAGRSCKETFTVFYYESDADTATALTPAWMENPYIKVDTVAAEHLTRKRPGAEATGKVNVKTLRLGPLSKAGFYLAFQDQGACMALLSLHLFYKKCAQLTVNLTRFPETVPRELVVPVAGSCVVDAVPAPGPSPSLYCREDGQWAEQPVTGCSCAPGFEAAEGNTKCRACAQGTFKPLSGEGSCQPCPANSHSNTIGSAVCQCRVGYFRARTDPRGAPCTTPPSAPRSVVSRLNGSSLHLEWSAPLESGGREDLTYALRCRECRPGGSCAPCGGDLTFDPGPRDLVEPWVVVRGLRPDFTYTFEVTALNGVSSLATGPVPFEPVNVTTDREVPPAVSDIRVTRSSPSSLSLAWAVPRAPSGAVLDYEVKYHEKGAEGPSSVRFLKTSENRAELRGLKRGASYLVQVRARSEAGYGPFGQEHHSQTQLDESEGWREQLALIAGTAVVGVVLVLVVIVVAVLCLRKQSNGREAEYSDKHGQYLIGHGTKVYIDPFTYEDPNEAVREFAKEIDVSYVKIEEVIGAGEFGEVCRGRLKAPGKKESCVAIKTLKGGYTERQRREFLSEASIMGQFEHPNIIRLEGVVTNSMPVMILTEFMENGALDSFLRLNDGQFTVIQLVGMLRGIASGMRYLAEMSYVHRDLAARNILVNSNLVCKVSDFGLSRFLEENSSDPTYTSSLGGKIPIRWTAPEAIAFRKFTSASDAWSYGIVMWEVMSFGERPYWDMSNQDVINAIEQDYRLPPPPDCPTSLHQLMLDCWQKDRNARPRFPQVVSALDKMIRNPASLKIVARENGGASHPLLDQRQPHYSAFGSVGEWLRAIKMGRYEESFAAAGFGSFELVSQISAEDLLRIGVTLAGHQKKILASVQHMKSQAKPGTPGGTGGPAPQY

A further test addresses T2, TAOK2 (Homo sapiens, UniProt Q9UL54).
T2 sequence (Q9UL54 1-1235): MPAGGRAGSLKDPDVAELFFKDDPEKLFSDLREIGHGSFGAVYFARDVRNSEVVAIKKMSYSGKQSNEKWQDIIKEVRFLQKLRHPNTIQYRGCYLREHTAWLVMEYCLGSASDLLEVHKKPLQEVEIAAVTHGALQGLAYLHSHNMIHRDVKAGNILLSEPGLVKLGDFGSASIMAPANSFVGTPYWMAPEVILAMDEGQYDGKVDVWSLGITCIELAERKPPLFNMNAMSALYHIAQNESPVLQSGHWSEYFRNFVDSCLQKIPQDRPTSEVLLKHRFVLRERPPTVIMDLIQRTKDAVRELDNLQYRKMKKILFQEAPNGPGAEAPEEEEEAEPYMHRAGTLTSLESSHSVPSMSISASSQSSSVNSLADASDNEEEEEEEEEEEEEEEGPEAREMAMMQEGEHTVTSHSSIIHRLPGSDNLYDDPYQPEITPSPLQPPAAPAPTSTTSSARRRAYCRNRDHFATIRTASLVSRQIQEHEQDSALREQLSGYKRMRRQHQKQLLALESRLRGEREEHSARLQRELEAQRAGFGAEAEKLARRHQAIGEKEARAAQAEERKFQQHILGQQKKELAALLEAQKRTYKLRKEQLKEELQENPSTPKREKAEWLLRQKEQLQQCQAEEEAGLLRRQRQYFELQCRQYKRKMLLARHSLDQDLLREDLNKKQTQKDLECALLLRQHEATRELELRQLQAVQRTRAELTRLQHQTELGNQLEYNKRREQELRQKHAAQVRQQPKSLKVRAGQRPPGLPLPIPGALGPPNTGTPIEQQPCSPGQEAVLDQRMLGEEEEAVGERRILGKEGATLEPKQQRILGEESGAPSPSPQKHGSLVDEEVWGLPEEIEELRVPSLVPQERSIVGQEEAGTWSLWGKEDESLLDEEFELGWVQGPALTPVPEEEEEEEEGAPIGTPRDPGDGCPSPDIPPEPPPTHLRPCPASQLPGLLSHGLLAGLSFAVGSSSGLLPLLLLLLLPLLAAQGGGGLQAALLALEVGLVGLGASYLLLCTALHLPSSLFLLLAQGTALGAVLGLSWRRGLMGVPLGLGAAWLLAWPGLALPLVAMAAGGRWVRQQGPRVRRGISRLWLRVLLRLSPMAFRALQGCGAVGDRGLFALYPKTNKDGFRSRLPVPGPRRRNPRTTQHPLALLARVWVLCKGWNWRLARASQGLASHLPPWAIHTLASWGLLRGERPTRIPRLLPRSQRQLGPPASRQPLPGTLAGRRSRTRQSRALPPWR

Where [1] appears, read: read-out: Niraparib (MK-4827) / %Ctrl @ 10000nM.
The mark [2] stands for this setting: read-out: Talazoparib (BMN 673) / %Ctrl @ 10000nM.
Setting [3] is: read-out: Rucaparib / %Ctrl @ 10000nM, binding competition, % of control.
The mark [4] stands for this setting: read-out: Olaparib / %Ctrl @ 10000nM.

RET(M918T), sequence (P07949 whole entry M918T): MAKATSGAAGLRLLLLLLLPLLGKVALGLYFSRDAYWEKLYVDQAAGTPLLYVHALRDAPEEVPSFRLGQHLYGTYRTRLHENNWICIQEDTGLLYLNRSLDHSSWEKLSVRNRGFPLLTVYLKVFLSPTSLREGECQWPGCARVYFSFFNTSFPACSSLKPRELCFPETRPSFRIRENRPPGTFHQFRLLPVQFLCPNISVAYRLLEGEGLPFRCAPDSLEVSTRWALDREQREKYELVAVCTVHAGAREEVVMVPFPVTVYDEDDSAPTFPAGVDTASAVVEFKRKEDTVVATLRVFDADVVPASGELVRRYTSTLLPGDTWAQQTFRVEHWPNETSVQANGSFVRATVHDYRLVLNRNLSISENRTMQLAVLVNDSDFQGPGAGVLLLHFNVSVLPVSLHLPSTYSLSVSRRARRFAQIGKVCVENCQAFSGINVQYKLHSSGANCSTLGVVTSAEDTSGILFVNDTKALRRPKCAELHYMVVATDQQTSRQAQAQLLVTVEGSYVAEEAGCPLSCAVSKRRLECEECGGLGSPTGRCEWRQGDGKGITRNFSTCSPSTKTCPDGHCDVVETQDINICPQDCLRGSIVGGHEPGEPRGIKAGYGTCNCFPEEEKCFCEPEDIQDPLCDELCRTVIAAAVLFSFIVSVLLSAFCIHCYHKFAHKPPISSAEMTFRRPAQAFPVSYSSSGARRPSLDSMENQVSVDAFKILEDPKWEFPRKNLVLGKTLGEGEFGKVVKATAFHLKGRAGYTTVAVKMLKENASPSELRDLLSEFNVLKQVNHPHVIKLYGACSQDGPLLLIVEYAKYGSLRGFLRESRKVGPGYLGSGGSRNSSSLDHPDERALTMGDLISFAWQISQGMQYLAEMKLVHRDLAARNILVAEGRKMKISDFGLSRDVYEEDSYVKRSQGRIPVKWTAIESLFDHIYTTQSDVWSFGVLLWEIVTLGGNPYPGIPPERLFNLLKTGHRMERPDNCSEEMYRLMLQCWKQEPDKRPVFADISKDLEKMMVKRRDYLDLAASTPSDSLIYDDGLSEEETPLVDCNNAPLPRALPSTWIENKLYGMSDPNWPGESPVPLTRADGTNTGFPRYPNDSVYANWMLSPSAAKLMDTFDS
FGFR1, sequence (P11362 whole entry): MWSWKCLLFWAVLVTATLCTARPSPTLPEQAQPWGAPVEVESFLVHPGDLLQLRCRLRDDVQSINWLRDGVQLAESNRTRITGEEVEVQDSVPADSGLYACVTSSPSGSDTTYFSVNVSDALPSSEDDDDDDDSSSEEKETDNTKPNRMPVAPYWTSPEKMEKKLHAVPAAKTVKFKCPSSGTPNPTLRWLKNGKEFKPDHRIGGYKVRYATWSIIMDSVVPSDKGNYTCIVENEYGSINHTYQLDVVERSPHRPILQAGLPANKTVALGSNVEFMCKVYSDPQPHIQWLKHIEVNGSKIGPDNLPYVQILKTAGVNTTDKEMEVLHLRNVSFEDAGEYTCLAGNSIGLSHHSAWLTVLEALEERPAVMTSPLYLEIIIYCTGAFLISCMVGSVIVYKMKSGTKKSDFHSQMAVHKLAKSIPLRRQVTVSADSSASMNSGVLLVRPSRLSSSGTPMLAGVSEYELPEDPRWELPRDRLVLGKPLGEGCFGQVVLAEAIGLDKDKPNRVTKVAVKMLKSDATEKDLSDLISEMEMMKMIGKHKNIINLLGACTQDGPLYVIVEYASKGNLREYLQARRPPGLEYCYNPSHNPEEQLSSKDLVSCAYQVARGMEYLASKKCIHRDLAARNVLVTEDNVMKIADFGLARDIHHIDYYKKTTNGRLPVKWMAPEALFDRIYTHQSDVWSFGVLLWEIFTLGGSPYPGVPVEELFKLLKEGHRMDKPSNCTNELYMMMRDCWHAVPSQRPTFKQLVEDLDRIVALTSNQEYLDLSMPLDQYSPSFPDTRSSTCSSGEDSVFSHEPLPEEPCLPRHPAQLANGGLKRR
CAMKK2, sequence (Q96RR4 whole entry): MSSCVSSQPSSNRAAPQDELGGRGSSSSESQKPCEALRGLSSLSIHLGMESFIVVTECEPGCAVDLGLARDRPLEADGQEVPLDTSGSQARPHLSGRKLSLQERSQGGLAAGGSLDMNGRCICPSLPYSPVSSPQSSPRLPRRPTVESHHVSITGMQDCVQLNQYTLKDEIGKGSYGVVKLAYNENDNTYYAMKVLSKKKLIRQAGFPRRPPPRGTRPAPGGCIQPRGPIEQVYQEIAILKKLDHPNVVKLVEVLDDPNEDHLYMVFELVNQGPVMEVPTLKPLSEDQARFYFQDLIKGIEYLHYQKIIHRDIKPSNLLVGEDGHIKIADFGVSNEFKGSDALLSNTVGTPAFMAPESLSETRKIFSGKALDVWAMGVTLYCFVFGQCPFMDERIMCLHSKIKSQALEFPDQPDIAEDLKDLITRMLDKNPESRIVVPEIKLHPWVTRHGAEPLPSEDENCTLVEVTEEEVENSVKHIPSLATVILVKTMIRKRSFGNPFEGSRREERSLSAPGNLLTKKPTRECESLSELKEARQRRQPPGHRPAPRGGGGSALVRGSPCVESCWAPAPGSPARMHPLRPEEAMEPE

Turning to `NC(=O)c1cccc2cn(-c3ccc([C@@H]4CCCNC4)cc3)nc12` [Niraparib], the percent of control binding at 10 µM was 81% at CAMKK2 (setting [1]); 91% at EPHB4 (setting [1]); 88% on FGFR1 (setting [1]); 95% at RET(M918T) (setting [1]); 100% on TAOK2 (setting [1]).

For `Cn1ncnc1[C@H]1c2n[nH]c(=O)c3cc(F)cc(c23)N[C@@H]1c1ccc(F)cc1` [Talazoparib], the percent of control binding at 10 µM at CAMKK2 (setting [2]) was found to be 97%; at EPHB4 (setting [2]), 100%; on FGFR1 (setting [2]), 94%; on RET(M918T) (setting [2]), 96%; on TAOK2 (setting [2]), 100%.

Consider `CNCc1ccc(-c2[nH]c3cc(F)cc4c3c2CCNC4=O)cc1` [Rucaparib], for which the percent of control binding at 10 µM amounted to 70% on CAMKK2 (setting [3]); 95% on EPHB4 (setting [3]); 91% on FGFR1 (setting [3]); 97% at RET(M918T) (setting [3]); 71% at TAOK2 (setting [3]).

Consider `O=C(c1cc(Cc2n[nH]c(=O)c3ccccc23)ccc1F)N1CCN(C(=O)C2CC2)CC1` [Olaparib], for which the percent of control binding at 10 µM amounted to 99% at CAMKK2 (setting [4]); 90% at EPHB4 (setting [4]); 100% on FGFR1 (setting [4]); 100% on RET(M918T) (setting [4]); 93% on TAOK2 (setting [4]).
